Experimental data from patent publication US20200138829A1, “METHODS OF CANCER TREATMENT” (Ferro Therapeutics, Inc., priority 2017, published 2020).

Columns and labels:
PSN-1 cells [1] = assay: Cell viability assay (CellTiter Glo), PSN-1; assay type: cell-based; details: PSN-1 versus A549
Protocol: (§1) Cell viability assay was performed to assess the potency of the ferroptosis inducer compounds in various cancer cell lines with K-Ras mutations. […] A series of 9 different concentrations of compound stocks (500×) were created by 3-fold serial dilution in DMSO. […] After 96 hours of incubation, 50 μL of CellTiter Glo reagent (Promega) was added to each well and luminescence was measured after 10 minutes using EnVision (PerkinElmer). […] IC50, relative IC50, or % of top inhibition was calculated. Next, RSL3, ML210, Erastin, and Auranofin were tested on additional K-RAS mutant pancreatic cell lines (Panc1, Panc6.03, Panc2.13, PSN-1, and Capan-1) in Table 1.

A549 cells [2] = assay: Effect of ferroptosis or apoptosis inhibitor on RSL3- or Erastin-induced cell death, A549; details: Homo sapiens, A549, read-out: reduction of cell viability compared to DMSO
Protocol: (§2) Cell viability assay was performed to assess the potency of the ferroptosis inducer compounds in various cancer cell lines with K-Ras mutations. Cells at a density of 1,000-10,000 cells/well were seeded in 96-well plates and incubated at 37° C. overnight. A series of 9 different concentrations of compound stocks (500×) were created by 3-fold serial dilution in DMSO. These compounds were further diluted in culture media and then added to cells so that the final DMSO concentration was equal to 0.25% or less. After 96 hours of incubation, 50 μL of CellTiter Glo reagent (Promega) was added to each well and luminescence was measured after 10 minutes using EnVision (PerkinElmer). K101A (a PKC activator) was used as the reference compound titrated from top concentration of 30 μM. All compounds were tested initially from 30 μM as the top concentration in duplicates (range of 4.6 nM-30 μM). […] Data was analyzed using XL-fit software (ID Business Solutions Ltd.). IC50, relative IC50, or % of top inhibition was calculated.
Ferroptosis inhibitors include: Ferrostatin-1 and Liproxstatin-1, inhibitors of ROS accumulation; Deferoxamine, an iron chelator; and PD146176, a 15-lipoxygenase inhibitor (see, e.g., Hofman et al., 2016, J Med Chem. March 10; 59(5):2041-53; Yang et al., 2016 Cell 26(3):165-176). […]

Panc1 cells [3] = assay: Combination proliferation assay with PKC activator, Panc1; assay type: cell-based; details: inducer up to 1 μM
Protocol: as §2
(§3) Therefore, whether PKC activators synergize or antagonize with ferroptosis inducers can be tested empirically.

KP-4 cells [4] = assay: Combination proliferation assay with PKC activator, KP-4; assay type: cell-based
Protocol: as §2, §3

KP-4 cells [5] = assay: Effect of ferroptosis or apoptosis inhibitor on RSL3- or Erastin-induced cell death, KP-4; details: Homo sapiens, KP-4, read-out: reduction of cell viability compared to DMSO
Protocol: as §2
Ferroptosis inhibitors include: Ferrostatin-1 and Liproxstatin-1, inhibitors of ROS accumulation; Deferoxamine, an iron chelator; and PD146176, a 15-lipoxygenase inhibitor (see, e.g., Hofman et al., 2016, J Med Chem. March 10; 59(5):2041-53; Yang et al., 2016 Cell 26(3):165-176). The apoptosis inhibitor chosen was ZVAD (see, e.g. Wu et al., 2011, Cell Death and Differentiation 18:26-37). Ferroptosis inhibitors and ZVAD were first titrated as a single agent as shown in Example 1.

A549 cells [6] = assay: Combination proliferation assay with PKC activator, A549; assay type: cell-based; details: inducer at concentration with minimal or no effect alone
Protocol: as §2, §3

[7] = system: B cell lymphoma cell lines Mino and Namalwa; assay: Cell viability assay, B cell lymphoma cell lines compared with A549; assay type: cell-based; details: Mino and Namalwa versus A549
Protocol: Cell viability assay was performed to assess the potency of the ferroptosis inducer compounds in various cancer cell lines with K-Ras mutations. […] A series of 9 different concentrations of compound stocks (500×) were created by 3-fold serial dilution in DMSO. […] After 96 hours of incubation, 50 μL of CellTiter Glo reagent (Promega) was added to each well and luminescence was measured after 10 minutes using EnVision (PerkinElmer). […] […] IC50, relative IC50, or % of top inhibition was calculated.

Panc1 cells [8] = assay: Cell viability assay (CellTiter Glo), Panc1; assay type: cell-based; details: Panc1 versus A549
Protocol: as §1

PSN-1 cells [9] = assay: Combination proliferation assay with PKC activator, PSN-1; assay type: cell-based
Protocol: as §2, §3

Panc2.13 cells = assay: Combination proliferation assay with PKC activator, Panc2.13; assay type: cell-based
Protocol: as §2, §3

Capan-1 cells = assay: Combination proliferation assay with PKC activator, Capan-1; assay type: cell-based
Protocol: as §2, §3

SMILES: CCOc1ccccc1-n1c(C(C)N2CCN(C(=O)COc3ccc(Cl)cc3)CC2)nc2ccccc2c1=O (stereo not drawn) [Erastin]
- selectivity/sensitivity for induced cell death in comparison to A549 (PSN-1 cells [1]): ~2 fold
- cytotoxicity at 10 µM (A549 cells [2]): 50 to 60%
- synergy with K101A or K102 to block proliferation (Panc1 cells [3]): No synergistic effects
- synergy when combined with K101A or K102 (KP-4 cells [4]): only additive effects
- cytotoxicity at 1 µM (KP-4 cells [5]): > 90%
- synergy with K101A or K102 to block proliferation (A549 cells [6]): synergized strongly
- sensitivity to induced cell death in comparison to A549 [7]: not more sensitive
- selectivity for induced cell death in comparison to A549 (Panc1 cells [8]): ~2 fold
- synergy with K101A (PKC activators) to block proliferation (PSN-1 cells [9]): synergized
- effect on the potency of K101A or K102 (Panc2.13 cells): only increased the potency
- synergy with K101A or K102 to block proliferation (Panc2.13 cells): synergized
- synergy with K101A or K102 to block proliferation (Capan-1 cells): did not synergize
